Twelve compounds from patent US20240360179A1, “STAPLED PEPTIDES AND METHODS THEREOF” (FOG PHARMACEUTICALS, INC., priority 2021, published 2024) can be followed below.

One experiment concerns COLO320DM cells. Briefly: COLO320DM proliferation assay (CellTiter-Glo). As to conditions: absolute IC50, read-out: COLO320DM Proliferation Abs IC50. In kind it is cell-based, human. As to the method:
COLO320DM proliferation assay IC50: In some embodiments, inhibition of cell proliferation by provided technologies were assessed using cell lines related to or from certain conditions, disorders or diseases. In some embodiments, cell proliferation was assessed in COLO320DM cells. In some embodiments, assessment was performed using the following procedure: On Day 1, cultured COLO320DM cells in a T75 flask were trypsinized in 3 mL of 0.250% trypsin/EDTA for 5 min and quenched with 10 mL RPMI-1640+4% HI FBS assay media. The cells were spun down at 1200 rpm for 5 min, the cell pellet collected and re-suspended at 5000 cells/mL in assay media. Using a Combi liquid handler, cells were dispensed (50 uL, 250 cells/well) into three 384 well plates. Plates were incubated at 37° C., 5% CO2 for 18-22 h. On day 2, compounds were added. A liquid handling system was used to prepare the compound dilution and dispense compound into assay plates. The compounds were serially diluted 1/2 in 90% DMSO to create a 7 point dose curve. From compound plate, 100 nL of compound were dispensed directly into wells of the assay plates to create a dose curve starting at 20 uM and ending at 313 nM. Assay plates were incubated at 37° C., 5% CO2 for 96 h. On day 6, assay plates were removed from the incubator and allowed to sit at room temperature for 30 min. Using a liquid handler, 20 uL of CellTiter Glo reagent was added to each well. The assay plates were shaken for 2 min and allowed to sit on the bench for 10-15 minutes. The assay plates were read using the CellTiter Glo protocol on a GloMax microplate reader, and the data analyzed using GraphPad Prism. Activities of various agents, including various stapled peptides in Table E2, were confirmed.
In some embodiments, an assessment was performed as follows. On day 0, cells were seeded in cell culture media (RPMI1640, 4% FBS) in a 96-well plate at desired density, typically at 1000 cells/well. On day 1, 10 mM agent stock solution (in DMSO) was first serially diluted into DMSO at 1:2 ratio, followed by diluting with cell culture media at two times of the final concentrations. Finally, agent-containing media were introduced to cell culture wells already having the same volume of cell culture media. Cells were incubated with agents for desired days before lysed for CellTiter-Glo® Luminescent Cell Viability Assay according to the manufacture instruction (Promega, G7570). Luminescent signal was obtained from a microplate reader (GloMax, Promega). Cell viability data was expressed as % relative to DMSO control wells.
Proliferation Assay. In some embodiments, various proliferation assays are utilized to characterize or assess provided technologies. In some embodiments, on day 0, cells were seeded in cell culture media in a 96-well plate at desired density, typically at 1000 cells/well. On day 1, 10 mM compound stock solution was first serially diluted into DMSO, followed by diluting with cell culture media at two times of the final concentrations. Finally, compound-containing media were introduced to cell culture wells already having the same volume of cell culture media. Cells were incubated with compounds for desired days before lysed for CTG according to the manufacture instruction (G7570, Promega). Luminescent signal was obtained from a microplate reader (GloMax, Promega).
For orientation: Cellular ATP, detected with luciferase, serves as a proxy for viable cell number.
On to `CC(=O)N1CCC[C@]12CC=CCCCC1(CCCC=CCCCOC(=O)N3CC[C@@]4(C3)NC(=O)[C@H](CCCCNC(=O)CC[C@@H](C(=O)N[C@@H](C)C(N)=O)NC(=O)[C@H](Cc3csc5ccccc35)NC(=O)[C@H](Cc3ccsc3)NC4=O)NC(=O)[C@H](Cc3ccccc3)NC(=O)[C@H](C)NC(=O)C(C)(C)NC(=O)[C@H](Cc3cccc(C(=O)O)c3)NC(=O)[C@H](CC(=O)O)NC1=O)NC(=O)[C@H](CCCN1CCOCC1)NC(=O)[C@H](CC(=O)O)NC2=O` (relative stereo) [I-313, Ac-PL3-Asp-MorphNva-B5-Asp-3COOHF-Aib-Ala-Phe-Lys*3-PyrS2-3Thi-BztA-GlnR*3-Ala-NH2], for which the IC50 was over 20 µM.

On to `CC(=O)N1CCC[C@]12CC=CCCCC1(CCCC=CCCCOC(=O)N3CC[C@@]4(C3)NC(=O)[C@H](CCCCNC(=O)CC[C@@H](C(=O)N[C@@H](C)C(N)=O)NC(=O)[C@H](Cc3csc5ccccc35)NC(=O)[C@H](Cc3ccsc3)NC4=O)NC(=O)[C@H](Cc3ccccc3)NC(=O)[C@H](C)NC(=O)[C@H](Cc3ccccc3)NC(=O)[C@H](Cc3cccc(C(=O)O)c3)NC(=O)[C@H](CC(=O)O)NC1=O)NC(=O)[C@H](CC(C)(C)C)NC(=O)[C@H](CC(=O)O)NC2=O` (relative stereo) [I-386, Ac-PL3-Asp-Npg-B5-Asp-3COOHF-Phe-Ala-Phe-Lys*3-PyrS2-3Thi-BztA-GlnR*3-Ala-NH2], for which the IC50 was over 20 µM.

Still in this experiment, the particulars now being: read-out: COLO320DM Proliferation Abs IC50.
On to “2IAPAc-PL3-Asp-Npg-B5-Asp-3COOHF-Aib-Ala-Phe-Lys*3-PyrS2-3Thi-BztA-GlnR*3-Ala-NH2 [I-1064]”, for which the IC50 was over 20 µM.

Consider “124TriAc-PL3-Asp-Npg-B5-Asp-3COOHF-Aib-Ala-Phe-Lys*3-PyrS2-3Thi-BztA-GlnR*3-Ala-NH2 [I-1075]”, for which the IC50 was over 20 µM.

`CC(=O)N1CCC[C@@]1(C)C(=O)N[C@@H](CC(=O)O)C(=O)N[C@H](C(=O)N[C@]1(C)CCCCCCCCOC(=O)N2CC[C@@]3(C2)NC(=O)[C@H](CCCCNC(=O)CC[C@@H](C(=O)N[C@@H](C)C(N)=O)NC(=O)[C@H](Cc2csc4ccccc24)NC(=O)[C@H](Cc2ccsc2)NC3=O)NC(=O)[C@H](Cc2ccccc2)NC(=O)[C@H](C)NC(=O)C(C)(C)NC(=O)[C@H](Cc2cccc(C(=O)O)c2)NC(=O)[C@H](CC(=O)O)NC1=O)C(C)C` (relative stereo) [I-237, Ac-MePro-Asp-Val-R5-Asp-3COOHF-Aib-Ala-Phe-Lys*3-PyrS2-3Thi-BztA-GlnR*3-Ala-NH2]: the IC50 is over 20 µM.

As for `CCCC[C@@H]1NC(=O)[C@H](CC(=O)O)NC(=O)[C@]2(CC=CCCCC3(CCCC=CCCCOC(=O)N4CC[C@@]5(C4)NC(=O)[C@H](CCCCNC(=O)CC[C@@H](C(=O)N[C@@H](C)C(N)=O)NC(=O)[C@H](Cc4csc6ccccc46)NC(=O)[C@H](Cc4ccsc4)NC5=O)NC(=O)[C@H](Cc4ccccc4)NC(=O)[C@H](C)NC(=O)C(C)(C)NC(=O)[C@H](Cc4cccc(C(=O)O)c4)NC(=O)[C@H](CC(=O)O)NC3=O)NC1=O)CCCN2C(C)=O` (relative stereo) [I-245, Ac-PL3-Asp-nLeu-B5-Asp-3COOHF-Aib-Ala-Phe-Lys*3-PyrS2-3Thi-BztA-GlnR*3-Ala-NH2], the IC50 is at most 10 µM.

For the compound `CC(=O)N1CCC[C@]12CC=CCCCC1(CCCC=CCCCOC(=O)N3CC[C@@]4(C3)NC(=O)[C@H](CCCCNC(=O)CC[C@@H](C(=O)N[C@@H](C)C(N)=O)NC(=O)[C@H](Cc3csc5ccccc35)NC(=O)[C@H](Cc3ccccc3C)NC4=O)NC(=O)[C@H](Cc3ccccc3)NC(=O)[C@H](C)NC(=O)C(C)(C)NC(=O)[C@H](Cc3cccc(C(=O)O)c3)NC(=O)[C@H](CC(=O)O)NC1=O)NC(=O)[C@H](CC(C)(C)C)NC(=O)[C@H](CC(=O)O)NC2=O` (relative stereo) [I-294, Ac-PL3-Asp-Npg-B5-Asp-3COOHF-Aib-Ala-Phe-Lys*3-PyrS2-2MeF-BztA-GlnR*3-Ala-NH2], the IC50 was at most 10 µM.

As for `CC(=O)N1CCC[C@]12CC=CCCCC1(CCCC=CCCCOC(=O)N3CC[C@@]4(C3)NC(=O)[C@H](CCCCNC(=O)CC[C@@H](C(=O)N[C@@H](C)C(N)=O)NC(=O)[C@H](Cc3csc5ccccc35)NC(=O)[C@H](Cc3ccccn3)NC4=O)NC(=O)[C@H](Cc3ccccc3)NC(=O)[C@H](C)NC(=O)C(C)(C)NC(=O)[C@H](Cc3cccc(C(=O)O)c3)NC(=O)[C@H](CC(=O)O)NC1=O)NC(=O)[C@H](CC(C)(C)C)NC(=O)[C@H](CC(=O)O)NC2=O` (relative stereo) [I-299, Ac-PL3-Asp-Npg-B5-Asp-3COOHF-Aib-Ala-Phe-Lys*3-PyrS2-2PyrA-BztA-GlnR*3-Ala-NH2], the IC50 was in the range of 10 to 20 µM.

As to `CC(=O)N1CCC[C@]12CC=CCCCC1(CCCC=CCCCOC(=O)N3CC[C@@]4(C3)NC(=O)[C@H](CCCCNC(=O)CC[C@@H](C(=O)N[C@@H](C)C(N)=O)NC(=O)[C@H](Cc3csc5ccccc35)NC(=O)[C@H](Cc3cccnc3)NC4=O)NC(=O)[C@H](Cc3ccccc3)NC(=O)[C@H](C)NC(=O)C(C)(C)NC(=O)[C@H](Cc3cccc(C(=O)O)c3)NC(=O)[C@H](CC(=O)O)NC1=O)NC(=O)[C@H](CC(C)(C)C)NC(=O)[C@H](CC(=O)O)NC2=O` (relative stereo) [I-300, Ac-PL3-Asp-Npg-B5-Asp-3COOHF-Aib-Ala-Phe-Lys*3-PyrS2-3PyrA-BztA-GlnR*3-Ala-NH2], the IC50 is over 20 µM.

As to `CC(=O)N1CCC[C@]12CC=CCCCC1(CCCC=CCCCOC(=O)N3CC[C@@]4(C3)NC(=O)[C@H](CCCCNC(=O)CC[C@@H](C(=O)N[C@@H](C)C(N)=O)NC(=O)[C@H](Cc3csc5ccccc35)NC(=O)[C@H](Cc3ccncc3)NC4=O)NC(=O)[C@H](Cc3ccccc3)NC(=O)[C@H](C)NC(=O)C(C)(C)NC(=O)[C@H](Cc3cccc(C(=O)O)c3)NC(=O)[C@H](CC(=O)O)NC1=O)NC(=O)[C@H](CC(C)(C)C)NC(=O)[C@H](CC(=O)O)NC2=O` (relative stereo) [I-301, Ac-PL3-Asp-Npg-B5-Asp-3COOHF-Aib-Ala-Phe-Lys*3-PyrS2-4PyrA-BztA-GlnR*3-Ala-NH2], the IC50 was over 20 µM.

Take `CC(=O)N1CCC[C@]12CC=CCCCC1(CCCC=CCCCOC(=O)N3CC[C@@]4(C3)NC(=O)[C@H](CCCCNC(=O)CC[C@@H](C(=O)N[C@@H](C)C(N)=O)NC(=O)[C@H](Cc3csc5ccccc35)NC(=O)[C@H](Cc3ccsc3)NC4=O)NC(=O)[C@H](Cc3ccccc3)NC(=O)[C@H](C)NC(=O)C(C)(C)NC(=O)[C@H](Cc3cccc(C(=O)O)c3)NC(=O)[C@H](CC(=O)O)NC1=O)NC(=O)[C@H](C)NC(=O)[C@H](CC(=O)O)NC2=O` (relative stereo) [I-304, Ac-PL3-Asp-Ala-B5-Asp-3COOHF-Aib-Ala-Phe-Lys*3-PyrS2-3Thi-BztA-GlnR*3-Ala-NH2]: the IC50 was at most 10 µM.

For `CC(=O)N1CCC[C@]12CC=CCCCC1(CCCC=CCCCOC(=O)N3CC[C@@]4(C3)NC(=O)[C@H](CCCCNC(=O)CC[C@@H](C(=O)N[C@@H](C)C(N)=O)NC(=O)[C@H](Cc3csc5ccccc35)NC(=O)[C@H](Cc3ccsc3)NC4=O)NC(=O)[C@H](Cc3ccccc3)NC(=O)[C@H](C)NC(=O)C(C)(C)NC(=O)[C@H](Cc3cccc(C(=O)O)c3)NC(=O)[C@H](CC(=O)O)NC1=O)NC(=O)[C@H](C1CCCCC1)NC(=O)[C@H](CC(=O)O)NC2=O` (single isomer, unassigned) [I-253, Ac-PL3-Asp-Chg-B5-Asp-3COOHF-Aib-Ala-Phe-Lys*3-PyrS2-3Thi-BztA-GlnR*3-Ala-NH2], the IC50 is at most 10 µM.
